From article PMC5408233, “Marine Cyclic Guanidine Alkaloids Monanchomycalin B and Urupocidin A Act as Inhibitors of TRPV1, TRPV2 and TRPV3, but not TRPA1 Receptors” (Marine Drugs, 2017)
Like-named read-outs stand apart in the source and are kept apart here. Values belong to the molecule of their own block, whether it stands above or below them.

What was measured:
human TRPV3 (hTRPV3) [1] = target: T1, human TRPV3 (hTRPV3) (Homo sapiens, UniProt Q8NET8); design: method as in doi:10.1007/s10600-015-1243-6, doi:10.1016/j.tetlet.2012.12.099; conditions: determined in the same test system; read-out: EC50, inhibitory activity toward hTRPV3; cited from earlier work
T1 construct: expressed in transfected cells
T1 sequence (Q8NET8 1-790): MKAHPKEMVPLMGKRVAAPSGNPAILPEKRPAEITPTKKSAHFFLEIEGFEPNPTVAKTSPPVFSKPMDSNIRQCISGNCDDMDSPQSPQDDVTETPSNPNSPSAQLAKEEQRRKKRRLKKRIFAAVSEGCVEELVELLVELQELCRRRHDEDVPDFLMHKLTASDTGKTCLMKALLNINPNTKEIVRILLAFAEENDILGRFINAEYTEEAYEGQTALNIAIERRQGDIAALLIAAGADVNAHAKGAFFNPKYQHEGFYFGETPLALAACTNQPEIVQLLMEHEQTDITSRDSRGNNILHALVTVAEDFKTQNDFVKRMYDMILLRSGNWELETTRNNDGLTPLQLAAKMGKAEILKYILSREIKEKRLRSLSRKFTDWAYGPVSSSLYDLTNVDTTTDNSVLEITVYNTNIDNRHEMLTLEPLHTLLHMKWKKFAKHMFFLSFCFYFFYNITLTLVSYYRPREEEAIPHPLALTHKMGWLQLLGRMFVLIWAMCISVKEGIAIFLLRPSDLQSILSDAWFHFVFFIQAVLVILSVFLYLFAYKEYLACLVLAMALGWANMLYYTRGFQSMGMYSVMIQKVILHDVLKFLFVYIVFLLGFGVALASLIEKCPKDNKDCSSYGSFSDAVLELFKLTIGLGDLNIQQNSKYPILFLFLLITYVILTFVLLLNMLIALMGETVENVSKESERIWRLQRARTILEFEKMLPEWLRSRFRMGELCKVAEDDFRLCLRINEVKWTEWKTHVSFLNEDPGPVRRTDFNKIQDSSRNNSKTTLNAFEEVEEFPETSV

rat TRPV1 (rTRPV1) [2] = target: T2, rat TRPV1 (rTRPV1) (Rattus norvegicus, UniProt O35433); design: method as in doi:10.1007/s10600-015-1243-6, doi:10.1016/j.tetlet.2012.12.099; conditions: determined in the same test system; read-out: EC50, inhibitory activity against rTRPV1; cited from earlier work
T2 construct: expressed in transfected cells

rat TRPA1 (rTRPA1) [3] = target: T3, rat TRPA1 (rTRPA1) (Rattus norvegicus, UniProt Q6RI86); design: method as in doi:10.1007/s10600-015-1243-6; conditions: read-out: EC50, inhibition of rTRPA1; cited from earlier work
T3 construct: expressed in transfected cells

rat TRPA1 (rTRPA1) [4] = target: T3, rat TRPA1 (rTRPA1); assay: Fluo-4 intracellular calcium assay, inhibition of AITC-induced [Ca2+] response in CHO cells expressing rTRPA1; format: cell-based; conditions: for EC50 (µM) rTRPA1: inhibitory activity, CHO cells expressing rTRPA1, agonist 100 μM AITC, preincubation 30 min at 37 °C
Description: (§1) The guanidine alkaloids (1–4) were tested on inhibitory activities against rTRPV1 (Figure 2A), mTRPV2 (Figure 2B), hTRPV3 (Figure 2C) and rTRPA1 receptors expressed in CHO (Chinese hamster ovary) cells in a Fluo-4–based intracellular calcium assay.
(§2) The effect of 1–4 on all the TRP-expressing cells was measured after preincubation at 37 °C for 30 min for standardization. […] Capsazepine (CZP) or non-specific blocker ruthenium red (RR) were used as a positive control for TRPV1 and for the other studied TRP receptors correspondingly.
(§3) The mouse TRPV2 gene was cloned form pancreatic beta cell line MIN6 and the CHO cell line stably expressing mouse TRPV2 was generated using T-Rex System (Thermo Fisher Scientific Inc., Waltham, MA, USA) similarly previously obtained stable cell lines for rat TRPV1, human TRPV3 and rat TRPA1 [6, 8]. Fluorescent assays were performed as described in [6]. The alkaloid’s solutions of desired concentration were obtained by serial dilution of water stock solutions (10 mg/mL) in calcium assay buffer (10 mM HEPES/HBSS, pH 7.4). The buffer alone (negative control) or serial dilutions of alkaloids 1–4 (20 μl) were added to the cells loaded with the cytoplasmic calcium indicator Fluo-4AM using Fluo-4 Direct™ Calcium Assay Kit (Thermo Fisher Scientific Inc., Waltham, MA, USA) (80 μl) and the cells were incubated 30 min at 37 °C. Changes in cell fluorescence (λex = 485 nm, λem = 520 nm) were monitored using NOVO star (BMG LABTECH, Ortenberg, Germany) before and after the addition of relevant agonist (500 nM capsaicin for rTRPV1, 300 μM 2APB for mTRPV2, 200 μM 2APB for hTRPV3, 100 μM AITC for rTRPA1) at 25 °C. Average cell responses to agonists in controls were about 60, 45, 40, 85% of the responses produced by 5 μM ionomycin for rTRPV1, mTRPV2, hTRPV3, rTRPA1 correspondingly. To avoid the spread of the data due to prolonged instrumental measurement each experimental point has control in the nearest plate wells. Curve fitting and parameter estimations were performed with Microsoft Excel 2007 (Microsoft Corporation, Redmond, WA, USA) and Origin 7.0 (OriginLab Corporation, Northampton, MA, USA). The EC50 values were determined as the concentration of test substance required to produce half-maximal decreases in [Ca^2+].

rat TRPV1 (rTRPV1) [5] = target: T2, rat TRPV1 (rTRPV1); assay: Fluo-4 intracellular calcium assay, inhibition of capsaicin-induced [Ca2+] response in CHO cells expressing rTRPV1; format: cell-based
Description: as §1
(§4) Figure 2 Dose-response curves for monanchomycalin B (1), urupocidin A (2), semi-synthetic urupocidin A derivatives (3, 4) inhibitory activity on agonist-induced [Ca^2+] responses in CHO cells expressing rTRPV1 (A); mTRPV2 (B); hTRPV3 (C). Responses were measured as the pseudo-ratio (ΔFI/FI) determined using the following formula ΔFI/FI = (FI-FIbase)/FIbase, where FI is the measured peak fluorescence intensity, Fbase is the fluorescence intensity in non-stimulated cells. Inhibitory activity was expressed as the percentage of the response in the control experiment (untreated by alkaloids cells). Data are expressed as mean ± s.e. (n = 4–8).
as §2, §3

human TRPV3 (hTRPV3) [6] = target: T1, human TRPV3 (hTRPV3); assay: Fluo-4 intracellular calcium assay, inhibition of 2APB-induced [Ca2+] response in CHO cells expressing hTRPV3; format: cell-based
Description: as §1, §4, §2, §3

mouse TRPV2 (mTRPV2) = target: T4, mouse TRPV2 (mTRPV2) (Mus musculus, UniProt Q9WTR1); assay: Fluo-4 intracellular calcium assay, inhibition of 2APB-induced [Ca2+] response in CHO cells expressing mTRPV2; format: cell-based
T4 construct: expressed in transfected cells
T4 sequence (Q9WTR1 1-756): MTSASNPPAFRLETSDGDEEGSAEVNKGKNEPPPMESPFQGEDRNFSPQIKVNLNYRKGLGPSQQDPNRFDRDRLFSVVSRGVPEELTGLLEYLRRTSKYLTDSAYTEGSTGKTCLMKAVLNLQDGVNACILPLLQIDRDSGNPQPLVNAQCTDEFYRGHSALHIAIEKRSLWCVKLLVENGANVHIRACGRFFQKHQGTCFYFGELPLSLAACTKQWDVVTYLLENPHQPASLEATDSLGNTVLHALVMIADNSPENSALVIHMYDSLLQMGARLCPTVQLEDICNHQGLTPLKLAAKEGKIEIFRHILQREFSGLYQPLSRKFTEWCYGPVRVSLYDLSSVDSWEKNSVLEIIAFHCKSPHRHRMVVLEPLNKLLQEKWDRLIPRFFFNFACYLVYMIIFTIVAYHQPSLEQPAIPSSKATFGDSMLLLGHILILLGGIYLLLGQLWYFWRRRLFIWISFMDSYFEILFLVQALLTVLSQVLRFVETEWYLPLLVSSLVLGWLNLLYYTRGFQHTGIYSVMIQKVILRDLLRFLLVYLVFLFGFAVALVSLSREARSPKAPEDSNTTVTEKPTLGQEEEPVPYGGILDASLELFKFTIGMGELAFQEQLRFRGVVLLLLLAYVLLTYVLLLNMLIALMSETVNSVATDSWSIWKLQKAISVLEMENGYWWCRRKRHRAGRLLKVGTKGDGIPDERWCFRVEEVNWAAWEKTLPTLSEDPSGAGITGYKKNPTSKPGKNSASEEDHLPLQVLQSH
Description: as §1, §4, §2
The mouse TRPV2 gene was cloned form pancreatic beta cell line MIN6 and the CHO cell line stably expressing mouse TRPV2 was generated using T-Rex System (Thermo Fisher Scientific Inc., Waltham, MA, USA) similarly previously obtained stable cell lines for rat TRPV1, human TRPV3 and rat TRPA1 [6, 8]. Fluorescent assays were performed as described in [6]. […] Changes in cell fluorescence (λex = 485 nm, λem = 520 nm) were monitored using NOVO star (BMG LABTECH, Ortenberg, Germany) before and after the addition of relevant agonist (500 nM capsaicin for rTRPV1, 300 μM 2APB for mTRPV2, 200 μM 2APB for hTRPV3, 100 μM AITC for rTRPA1) at 25 °C. […] The EC50 values were determined as the concentration of test substance required to produce half-maximal decreases in [Ca^2+].

[7] = test system: HL-60 human leukemia cells; design: method as in doi:10.1016/j.tetlet.2012.05.162; conditions: cited from earlier work
[8] = inhibitory activity, CHO cells expressing rTRPV1, agonist 500 nM capsaicin, preincubation 30 min at 37 °C, mean ± s.e., read-out: EC50 (µM) rTRPV1
[9] = inhibitory activity, CHO cells expressing hTRPV3, agonist 200 μM 2APB, preincubation 30 min at 37 °C, mean ± s.e., read-out: EC50 (µM) hTRPV3
[10] = 20 µM RR, positive control, data not shown

T3 sequence (Q6RI86 whole entry): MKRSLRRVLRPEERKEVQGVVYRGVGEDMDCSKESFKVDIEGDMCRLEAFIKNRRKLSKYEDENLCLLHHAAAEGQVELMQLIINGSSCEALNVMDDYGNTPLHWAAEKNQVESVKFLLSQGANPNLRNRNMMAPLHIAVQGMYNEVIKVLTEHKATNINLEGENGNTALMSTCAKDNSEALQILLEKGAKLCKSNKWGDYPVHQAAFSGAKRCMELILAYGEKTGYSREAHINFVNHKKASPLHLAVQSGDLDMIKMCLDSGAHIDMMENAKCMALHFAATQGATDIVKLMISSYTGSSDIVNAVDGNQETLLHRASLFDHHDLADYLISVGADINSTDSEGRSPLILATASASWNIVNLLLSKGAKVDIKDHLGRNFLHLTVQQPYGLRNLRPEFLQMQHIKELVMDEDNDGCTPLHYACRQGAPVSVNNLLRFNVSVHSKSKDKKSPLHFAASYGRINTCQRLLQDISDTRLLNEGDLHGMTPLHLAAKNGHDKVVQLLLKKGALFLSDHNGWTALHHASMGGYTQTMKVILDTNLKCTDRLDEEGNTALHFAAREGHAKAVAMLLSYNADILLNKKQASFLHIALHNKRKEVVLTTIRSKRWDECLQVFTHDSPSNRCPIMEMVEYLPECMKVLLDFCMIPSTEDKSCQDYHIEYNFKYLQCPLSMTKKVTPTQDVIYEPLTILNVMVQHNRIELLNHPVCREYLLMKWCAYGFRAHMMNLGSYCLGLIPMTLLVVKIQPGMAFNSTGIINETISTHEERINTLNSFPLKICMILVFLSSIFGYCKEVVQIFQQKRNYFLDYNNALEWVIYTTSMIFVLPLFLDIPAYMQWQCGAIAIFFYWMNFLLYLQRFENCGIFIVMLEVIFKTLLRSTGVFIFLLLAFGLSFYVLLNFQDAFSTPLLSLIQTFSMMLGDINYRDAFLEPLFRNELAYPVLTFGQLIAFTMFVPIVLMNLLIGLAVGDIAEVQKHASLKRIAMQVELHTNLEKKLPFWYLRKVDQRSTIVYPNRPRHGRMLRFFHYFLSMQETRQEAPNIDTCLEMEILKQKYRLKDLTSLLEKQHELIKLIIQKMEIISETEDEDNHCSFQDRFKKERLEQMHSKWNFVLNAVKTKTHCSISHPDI
T2 sequence (O35433 whole entry): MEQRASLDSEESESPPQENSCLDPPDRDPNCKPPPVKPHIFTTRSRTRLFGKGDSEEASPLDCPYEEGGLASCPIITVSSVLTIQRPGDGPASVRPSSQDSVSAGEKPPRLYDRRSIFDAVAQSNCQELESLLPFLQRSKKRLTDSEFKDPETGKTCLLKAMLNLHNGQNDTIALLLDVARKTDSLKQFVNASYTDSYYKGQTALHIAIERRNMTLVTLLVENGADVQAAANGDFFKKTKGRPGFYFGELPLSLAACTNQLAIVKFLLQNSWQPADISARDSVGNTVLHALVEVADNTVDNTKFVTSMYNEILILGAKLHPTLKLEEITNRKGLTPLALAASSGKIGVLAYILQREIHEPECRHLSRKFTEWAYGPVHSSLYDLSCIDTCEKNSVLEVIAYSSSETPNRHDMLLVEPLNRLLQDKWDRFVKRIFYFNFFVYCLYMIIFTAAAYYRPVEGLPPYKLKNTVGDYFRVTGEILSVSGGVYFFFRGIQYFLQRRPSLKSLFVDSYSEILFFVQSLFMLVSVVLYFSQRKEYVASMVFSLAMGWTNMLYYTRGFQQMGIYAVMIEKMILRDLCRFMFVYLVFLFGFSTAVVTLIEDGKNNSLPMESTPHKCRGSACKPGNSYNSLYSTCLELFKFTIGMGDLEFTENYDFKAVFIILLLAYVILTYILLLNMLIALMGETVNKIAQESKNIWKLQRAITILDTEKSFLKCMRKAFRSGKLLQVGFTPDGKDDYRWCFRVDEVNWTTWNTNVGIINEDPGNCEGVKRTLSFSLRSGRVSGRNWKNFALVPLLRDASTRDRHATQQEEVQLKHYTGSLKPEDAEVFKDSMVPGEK

Molecule: C1=C/[C@H]2[C@@H]3CCCC[C@H]3C[C@@H]2NCCCN[C@@H]2C[C@@H]3CCCC[C@H]3[C@@H]2/C=C/1 [haliclonadiamine]
- EC50 (human TRPV3 (hTRPV3) [1]): 77 µM
- EC50 (rat TRPV1 (rTRPV1) [2]): 19.9 µM
- EC50 (rat TRPA1 (rTRPA1) [3]): 86.7 µM

- EC50 (µM) rTRPA1 (rat TRPA1 (rTRPA1) [4]): not active
- EC50 (µM) rTRPV1 (rat TRPV1 (rTRPV1) [5]; inhibitory activity, CHO cells expressing rTRPV1, agonist 500 nM capsaicin, preincubation 30 min at 37 °C, mean ± s.e.): almost not active
- EC50 (rat TRPV1 (rTRPV1) [5]; [8]): 435 ± 49.9 µM
- EC50 (µM) hTRPV3 (human TRPV3 (hTRPV3) [6]; inhibitory activity, CHO cells expressing hTRPV3, agonist 200 μM 2APB, preincubation 30 min at 37 °C, mean ± s.e.): almost not active
- EC50 (human TRPV3 (hTRPV3) [6]; [9]): 193 ± 25.5 µM
Molecule: CCC/C=C\CC[C@@H](O)C[C@H]1CCC2=C(C(=O)OC)[C@H](CC/C=C\CCC)NC(=N)N21 [Compound 4]

- Inhibition of the [Ca2+] response induced by specific agonist (TRPA1) (rat TRPA1 (rTRPA1) [4]; [10]): full inhibition
- Inhibition of the [Ca2+] response induced by specific agonist (TRPV3) (human TRPV3 (hTRPV3) [6]; [10]): full inhibition
- Inhibition of the [Ca2+] response induced by specific agonist (TRPV2) (mouse TRPV2 (mTRPV2); [10]): full inhibition
Molecule: N.N.N.N.N.N.N.N.N.N.N.N.N.N.[Cl-].[Cl-].[Cl-].[Cl-].[Cl-].[Cl-].[O-2].[O-2].[Ru+3].[Ru+3].[Ru+4] [RR, ruthenium red, reference compound]

Molecule: CCC=CC1CCC2(CC3CCC4C(C(=O)OCCCCCCCCCCCCCCCC(=O)N(CCCN)CCCCN)C5(CCCC(C)O5)NC(=[N+]34)N2)O1 (stereo not drawn) [Compound 1, monanchomycalin B]
- Cytotoxic activities against HL-60 human leukemia cells [7]: potent cytotoxic activities
- EC50 (µM) rTRPA1 (rat TRPA1 (rTRPA1) [4]): not active
- EC50 (rat TRPV1 (rTRPV1) [5]): 6.02 ± 0.36 µM
- EC50 (human TRPV3 (hTRPV3) [6]): 3.25 ± 0.6 µM
- EC50 (mouse TRPV2 (mTRPV2)): 2.84 ± 1.01 µM

- Inhibition of the [Ca2+] response induced by specific agonist (TRPV1) (rat TRPV1 (rTRPV1) [5]; 10 µM CZP, positive control, data not shown): full inhibition
Molecule: Oc1cc2c(cc1O)CN(C(=S)NCCc1ccc(Cl)cc1)CCC2 [CZP, Capsazepine, reference compound]

Molecule: pulchranin A
- EC50 (human TRPV3 (hTRPV3) [1]): 71.8 µM
- EC50 (rat TRPV1 (rTRPV1) [2]): 27.5 µM
- EC50 (rat TRPA1 (rTRPA1) [3]): 174 µM

- EC50 (µM) rTRPA1 (rat TRPA1 (rTRPA1) [4]): not active
- EC50 (rat TRPV1 (rTRPV1) [5]; [8]): 52.8 ± 5.31 µM
- EC50 (human TRPV3 (hTRPV3) [6]; [9]): 29.2 ± 3.18 µM
Molecule: CCCCCCC[C@@H](O)C[C@H]1CCC2=C(C(=O)OCCCCN(O)C(=N)N)[C@H](CCCCCCC)NC(=N)N21 [Compound 3, Tetrahydrourupocidin A]

- EC50 (µM) rTRPA1 (rat TRPA1 (rTRPA1) [4]): not active
- EC50 (rat TRPV1 (rTRPV1) [5]; [8]): 21.5 ± 2.51 µM
- EC50 (human TRPV3 (hTRPV3) [6]; [9]): 23.6 ± 2.03 µM
- EC50 (mouse TRPV2 (mTRPV2); inhibitory activity, CHO cells expressing mTRPV2, agonist 300 μM 2APB, preincubation 30 min at 37 °C, mean ± s.e., read-out: EC50 (µM) mTRPV2): 28.1 ± 6.65 µM
Molecule: CCC/C=C\CC[C@@H](O)C[C@H]1CCC2=C(C(=O)OCCCCN(O)C(=N)N)[C@H](CC/C=C\CCC)NC(=N)N21 [Compound 2, urupocidin A]
